# In PMC9090141 (Pediatric blood & cancer, 2021):
# Entries after “also recorded” stand apart in the source; their conditions may differ. Counter-ions that a name gives are not always drawn.
# Tests used:
# [1] = system: pediatric cancer cell lines; conditions: cited from earlier work
# [2] = in vivo; cited from earlier work
# [3] = system: recurrent or refractory solid and CNS tumors; test: Radiographic antitumor response; type: in vivo, human
# [4] = system: pediatric tumor xenograft models; conditions: in vivo; cited from earlier work
# pCHK1 = conditions: cited from earlier work
# [5] = 25 patients evaluable for response
compound,measurement,setting,value
"COc1cccc(OCCCN)c1-c1cc(Nc2cnc(C#N)cn2)n[nH]1 [prexasertib, Prexasertib mesylate monohydrate]","inhibition of cell proliferation, potency",[1],low nanomolar concentrations
same,CNS penetration,[2],adequate CNS penetration
same,best overall response (BOR),[3]; [5],stable disease in 3 patients; also recorded: Three patients had a best overall response (BOR) of stable disease
same,objective responses,[3]; [5],no objective responses
same,duration of stable disease,"[3]; patient with (anaplastic) ependymoma, dose level 2",3 cycles
same,duration of stable disease,"[3]; patient with hepatocellular carcinoma, dose level 1",5 cycles
same,duration of stable disease,"[3]; patient with undifferentiated sarcoma, dose level 3",5 cycles
same,tolerability,[4],well-tolerated
same,median AUC0–72h predicted for efficacy,pCHK1; Calu-6 preclinical PK/PD model,1896 ng·h/mL
same,IC50 for pCHK1 inhibition (plasma concentration),pCHK1,14.1 ng/ml
